{
  "source": "patent US11839217B2",
  "about": "“Composition comprising a bioactive molecule” (EUCARYO BEHEER B.V., priority 2016, dated 2023)",
  "origin": "cited, not measured here",
  "data": [
    {"smiles": "C[C@@H]1C/C=C/C=C/C=C/C=C/[C@H](O[C@@H]2O[C@H](C)[C@@H](O)[C@H](N)[C@@H]2O)C[C@@H]2O[C@](O)(C[C@@H](O)C[C@H]3O[C@@H]3/C=C/C(=O)O1)C[C@H](O)[C@H]2C(=O)O", "note": "[natamycin]", "values": [
      {"measurement": "solubility in ethanol", "setting": "ethanol", "result": "40 to 1200", "unit": "µg/mL"},
      {"measurement": "solubility in water", "setting": "water", "result": "30 to 50", "unit": "µg/mL"}
    ]}
  ]
}
